≈ marks a conversion by molar mass, not a printed value. Read-outs that look alike come from different tables or passages of the source. Positions of bridges follow the written chain, without caps; N, C: chain ends. Non-standard residues stand in square brackets, D forms with d. Residues, ends and D or L forms follow the SMILES beside them. *: point of attachment. Octanoyl(7-Me) = CC(C)CCCCCC(=O)*; dOrn = NCCC[C@@H](N)C(=O)O; Orn = NCCC[C@H](N)C(=O)O; Dap = NC[C@H](N)C(=O)O
Experiments:
Gram-negative bacteria = test: MIC comparison across the bacterial panel of Table 1; type: cell-based; conditions: enantiomer versus natural product, strains of Table 1
Procedure: (§1) Minimum inhibitory concentrations (MICs) were determined by broth microdilution according to CLSI guidelines in triplicate. Blood agar plates were inoculated with glycerol stocks of E. coli ATCC 25922, E. coli MCR-1 (clinical isolate from Utrecht Medical Centre, NL), E. coli EQAS MCR-2 (clinical isolate from Wageningen University and Research, NL), K. pneumoniae ATCC 11228, K. pneumoniae ATCC 13883, K. pneumonia 2048 (clnical isolate from Vrije Universiteit Amsterdam Medical Centre, NL), K. pneumonia JS-123 (clinical isolate from Utrecht Medical […]
(clinical isolate from Rijksinstituut voor Volksgezondheid en Milieu, NL), A. baumannii MDR (clinical isolate from Vrije Universiteit Amsterdam Medical Centre, NL), P. aeruginosa ATCC 27853, P. aeruginosa PAO1, P. aeruginosa NRZ-03961 (Reference strain from Das Nationale Referenzzentrum für gramnegative Krankenhauserreger, DE), P. aeruginosa M-120 (clinical isolate from Leiden University Medical Centre, NL) and S. aureus USA300 (clinical isolate from Texas Children's Hospital, USA). E. coli 25922 MCR1 was grown on LB agar supplemented with kanamycin. The inoculated agar plates were then incubated for 16 h at 37°C . […] In parallel, the lipopeptide antibiotics to be assessed were serially diluted with Mueller-Hinton broth (MHB) in polypropylene 96-well plates (50 µL in each well). […]

A. baumannii ATCC 17961 = type: cell-based; conditions: ATCC 17961, 16 h
Procedure: as §1
(§2) (clinical isolate from Rijksinstituut voor Volksgezondheid en Milieu, NL), A. baumannii MDR (clinical isolate from Vrije Universiteit Amsterdam Medical Centre, NL), P. aeruginosa ATCC 27853, P. aeruginosa PAO1, P. aeruginosa NRZ-03961 (Reference strain from Das Nationale Referenzzentrum für gramnegative Krankenhauserreger, DE), P. aeruginosa M-120 (clinical isolate from Leiden University Medical Centre, NL) and S. aureus USA300 (clinical isolate from Texas Children's Hospital, USA). E. coli 25922 MCR1 was grown on LB agar supplemented with kanamycin. The inoculated agar plates were then incubated for 16 h at 37°C . Individually grown colonies were subsequently used to inoculate 3 mL aliquots of TSB that were then incubated at 37°C with shaking at 220 rpm. In parallel, the lipopeptide antibiotics to be assessed were serially diluted with Mueller-Hinton broth (MHB) in polypropylene 96-well plates (50 µL in each well).
(§3) Once the OD600 of the bacterial suspensions reached 0.5, the bacteria were diluted with MHB (final concentration 2 × 10^5 CFU mL−1) and added to the microplates containing the test compounds (50 µL to each well, final volume: 100 µL). The well-plates were sealed with an adhesive membrane and after 16 h of incubation at 37°C with shaking at 220 rpm the wells were visually inspected for bacterial growth. MIC values reported are based on three technical replicates and defined as the lowest concentration of the compound that prevented visible growth of bacteria. […]

P. aeruginosa PAO1 = type: cell-based; conditions: PAO1, 16 h
Procedure: as §1, §2, §3

P. aeruginosa ATCC 27853 = type: cell-based; conditions: ATCC 27853, 16 h
Procedure: as §1, §2, §3

K. pneumoniae JS-123 = type: cell-based; conditions: JS-123, 16 h
Procedure: as §1, §2, §3

A. baumannii ATCC 17978 = type: cell-based; conditions: ATCC 17978, 16 h
Procedure: as §1, §2, §3

P. aeruginosa M-120 = type: cell-based; conditions: M-120, 16 h
Procedure: as §1, §2, §3

K. pneumoniae ATCC 13883 = type: cell-based; conditions: ATCC 13883, 16 h
Procedure: as §1, §2, §3

S. aureus USA300 = type: cell-based; conditions: USA300, 16 h
Procedure: as §1, §2, §3

K. pneumoniae ATCC 11228 = type: cell-based; conditions: ATCC 11228, 16 h
Procedure: as §1, §2, §3

A. baumannii 2018-006 = type: cell-based; conditions: 2018-006, 16 h
Procedure: as §1, §2, §3

K. pneumoniae 2048 = type: cell-based; conditions: 2048, 16 h
Procedure: as §1, §2, §3

E. coli ATCC 25922 [1] = type: cell-based
Procedure: as §1, §2, §3

P. aeruginosa NRZ-03961 = type: cell-based; conditions: NRZ-03961, 16 h
Procedure: as §1, §2, §3

E. coli ATCC 25922 [2] = test: LPS antagonization assay; type: cell-based; conditions: E. coli ATCC 25922, MHB supplemented with 1 mg/mL LPS from E. coli O55:B5, 16 h 37 °C
Procedure: Figure S6. LPS antagonization assay. A blood agar plate was inoculated with a glycerol stock of E. coli ATCC 25922. The […]
inoculated agar plate was then incubated for 16 h at 37 °C. An individually grown colony was subsequently used to inoculate 3 mL […]
of TSB that was then incubated at 37 °C with shaking at 220 rpm. In parallel, the compounds to be assessed were serially diluted […]
with Mueller-Hinton broth (MHB) in polypropylene 96-well plates (50 µL in each well). Once the OD600 of the bacterial […]
suspensions reached 0.5, the bacteria were diluted with MHB (final concentration 2 × 10^5 CFU mL−1). The media were then either […]
supplemented with 1 mg/mL of LPS (lipopolysaccharides from E. coli O55:B5, Sigma-Aldrich) or added directly to the microplates […]
containing the test compounds (50 µL to each well, final volume: 100 µL). The well-plates were sealed with an adhesive membrane and after 16 h of incubation at 37°C with shaking at 220 rpm. The w ells were visually inspected for bacterial growth.
(1 picture or pasted object on this page, not shown here)

E. coli ATCC 25922 [3] = test: Neutropenic mouse thigh infection efficacy study; type: in vivo, mice (ICR); conditions: neutropenic mice
Procedure: (§4) In vivo tolerability and efficacy studies
(§5) Ethical Issues. Animal experiments were performed under UK Home Office Licences P89653310 (tolerability and PK) and PA67E0BAA (thigh efficacy), with local ethical committee clearance.
(§6) Animal Strain. Mice used in these studies were supplied by Charles River (Margate UK) and were specific pathogen free. The strain of mice used was ICR (also known as CD1 Mice) which is a well characterized outbred murine strain. Mice (male) were 11-15 g on receipt and were allowed to acclimatise for at least 7 days.
(§7) Animal Housing. Mice were housed in sterilised individual ventilated cages exposing the mice at all times to HEPA filtered sterile air. Mice had free access to food and water and had aspen chip bedding (changed at least once weekly). The room temperature was 22°C +/ - 1°C, with a relative humidity of 60% and maximum background noise of 56 dB. Mice were exposed to 12 h light/dark […]
Test compounds. Compound 6 was dissolved in water for injection in which it formed a clear […]
colourless solution. […]
Compound 6 was administered via subcutaneous administration route at 3 8-h […]
The mice used in the tolerability study were naïve and were not immunosuppressed or infected.
Efficacy study. The in vivo efficacy of compound 6 was assessed in a mouse thigh abscess model where both thighs of each mouse were infected with E. coli ATCC 25922
Immunosuppression. […]
Endpoints. One h and 20.5 (planned 25) h post-infection, the clinical condition of all animals was assessed prior to humane euthanasia using pentobarbitone overdose, and the thighs were removed and weighed. Thigh samples were homogenized in 3mL ice cold sterile PBS; the homogenates were quantitatively cultured onto CLED agar and incubated at 37°C for 18 - 24 h before colonies were […]
Data analysis. The data from the culture burdens were analysed using appropriate non-parametric statistical models (Kruskal-Wallis using Conover-Inman to make all pairwise comparisons between groups) with StatsDirect software v. […]

[4] = In vivo tolerability study; conditions: naïve ICR mice, subcutaneous, 40 mg kg^−1 q8h over 24 h (total daily dose 120 mg kg^−1)
Procedure: as §4, §5, §6, §7
Test compounds. Compound 6 was dissolved in water for injection in which it formed a clear colourless solution. Polymyxin B was dissolved in saline for injection to produce a clear colourless […]
Tolerability study. The tolerability of compound 6 was assessed in the same mouse strain used for the efficacy studies. Compound 6 was administered via subcutaneous administration route at 3 8-h […]
The mice used in the tolerability study were naïve and were not immunosuppressed or infected. […]

CC[C@@H](C)[C@H]1NC(=O)[C@H](NC(=O)[C@@H](Cc2c[nH]c3ccccc23)NC(=O)[C@H](CCCN)NC(=O)CNC(=O)[C@@H](CCCN)NC(=O)[C@H](CCCN)NC(=O)[C@H](Cc2c[nH]c3ccccc23)NC(=O)[C@H](Cc2ccc(O)cc2)NC(=O)[C@H](CO)NC(=O)CCCCCC(C)C)[C@H](C)OC(=O)CNC(=O)CNC(=O)[C@@H](CC(N)=O)NC1=O (single isomer, unassigned) [ent-Lat (ent-2), ent-laterocidine]
MIC values higher than the natural products (Gram-negative bacteria): 8- to 32 fold | MIC (A. baumannii ATCC 17961): 4 µg/mL (≈ 2.49 µM) | MIC (P. aeruginosa PAO1): 16 µg/mL (≈ 9.97 µM) | MIC (P. aeruginosa ATCC 27853): 8 µg/mL (≈ 4.98 µM) | MIC (K. pneumoniae JS-123): 4 µg/mL (≈ 2.49 µM) | MIC (A. baumannii ATCC 17978): 4 µg/mL (≈ 2.49 µM) | MIC (P. aeruginosa M-120): 16 µg/mL (≈ 9.97 µM) | MIC (K. pneumoniae ATCC 13883): 16 µg/mL (≈ 9.97 µM) | MIC (S. aureus USA300): 64 µg/mL (≈ 39.9 µM) | MIC (K. pneumoniae ATCC 11228): 16 µg/mL (≈ 9.97 µM) | MIC (A. baumannii 2018-006): 4 µg/mL (≈ 2.49 µM) | MIC (K. pneumoniae 2048): 16 µg/mL (≈ 9.97 µM) | MIC (E. coli ATCC 25922 [1]; ATCC 25922, 16 h): 8 µg/mL (≈ 4.98 µM) | MIC (P. aeruginosa NRZ-03961): 16 µg/mL (≈ 9.97 µM) | decrease of antibacterial activity in the presence of LPS (E. coli ATCC 25922 [2]): ≥ 8 fold

CC[C@H](C)[C@@H]1NC(=O)[C@@H](NC(=O)[C@H](Cc2c[nH]c3ccccc23)NC(=O)[C@@H](CCCN)NC(=O)CNC(=O)[C@H](CCCN)NC(=O)[C@@H](CCCN)NC(=O)[C@@H](Cc2c[nH]c3ccccc23)NC(=O)[C@@H](Cc2ccc(O)cc2)NC(=O)[C@@H](CO)NC(=O)CCCCCC(C)C)CNC(=O)CNC(=O)CNC(=O)[C@H](CC(N)=O)NC1=O [Dap9-Lat (6), Dap9-laterocidamide] ({Octanoyl(7-Me)}-[dS][dY][dW][dOrn][Orn]G[dOrn]W[Dap]INGG; lactam 9-C)
MIC (A. baumannii ATCC 17961): 4 µg/mL (≈ 2.52 µM) | MIC (P. aeruginosa PAO1): 1 to 2 µg/mL | MIC (P. aeruginosa ATCC 27853): 0.5 to 1 µg/mL | MIC (K. pneumoniae JS-123): 0.5 µg/mL (≈ 0.314 µM) | MIC (A. baumannii ATCC 17978): 4 µg/mL (≈ 2.52 µM) | MIC (P. aeruginosa M-120): 1 to 2 µg/mL | MIC (K. pneumoniae ATCC 13883): 2 µg/mL (≈ 1.26 µM) | MIC (S. aureus USA300): >64 µg/mL | MIC (K. pneumoniae ATCC 11228): 2 µg/mL (≈ 1.26 µM) | MIC (A. baumannii 2018-006): 4 µg/mL (≈ 2.52 µM) | MIC (K. pneumoniae 2048): 2 µg/mL (≈ 1.26 µM) | MIC (E. coli ATCC 25922 [1]; ATCC 25922, 16 h): 1 µg/mL (≈ 0.629 µM) | MIC (E. coli ATCC 25922 [1]; Ec ATCC 25922, broth microdilution (CLSI), MHB, 2 × 10^5 CFU/mL, 16 h 37 °C, visual read-out, three technical replicates): 1.0 µg/mL (≈ 0.629 µM) | MIC (P. aeruginosa NRZ-03961): 2 µg/mL (≈ 1.26 µM) | dose response of thigh burden (E. coli ATCC 25922 [3]; E. coli ATCC 25922 thigh infection, 10, 20 and 40 mg kg^−1 SC q8h): clear dose response | reduction in bacterial load relative to the untreated group (E. coli ATCC 25922 [3]; thigh infection with E. coli ATCC 25922, 40 mg kg^−1 SC q8h starting 1 h post-infection, thigh burden cfu g^−1 at 20.5 h): ~5 log | tolerability [4]: well tolerated | tolerability ([4]; listed as 6): good tolerability

CC[C@H](C)[C@@H]1NC(=O)[C@@H](NC(=O)[C@H](Cc2c[nH]c3ccccc23)NC(=O)[C@@H](CCCN)NC(=O)CNC(=O)[C@H](CCCN)NC(=O)[C@@H](CCCN)NC(=O)[C@@H](Cc2c[nH]c3ccccc23)NC(=O)[C@@H](Cc2ccc(O)cc2)NC(=O)[C@@H](CO)NC(=O)CCCCCC(C)C)[C@@H](C)OC(=O)CNC(=O)CNC(=O)[C@H](CC(N)=O)NC1=O [Lat (2), laterocidine]
MIC (A. baumannii ATCC 17961): 0.5 µg/mL (≈ 0.312 µM) | MIC (P. aeruginosa PAO1): 1 µg/mL (≈ 0.623 µM) | MIC (P. aeruginosa ATCC 27853): ≤0.5 µg/mL | MIC (K. pneumoniae JS-123): 0.5 µg/mL (≈ 0.312 µM) | MIC (A. baumannii ATCC 17978): 0.5 µg/mL (≈ 0.312 µM) | MIC (P. aeruginosa M-120): 1 µg/mL (≈ 0.623 µM) | MIC (K. pneumoniae ATCC 13883): 1 µg/mL (≈ 0.623 µM) | MIC (S. aureus USA300): 64 µg/mL (≈ 39.9 µM) | MIC (K. pneumoniae ATCC 11228): 2 µg/mL (≈ 1.25 µM) | MIC (A. baumannii 2018-006): 2 µg/mL (≈ 1.25 µM) | MIC (K. pneumoniae 2048): 2 µg/mL (≈ 1.25 µM) | MIC (E. coli ATCC 25922 [1]; ATCC 25922, 16 h): 1 µg/mL (≈ 0.623 µM) | MIC (P. aeruginosa NRZ-03961): 1 to 2 µg/mL | decrease of antibacterial activity in the presence of LPS (E. coli ATCC 25922 [2]): ≥ 8 fold
